According to patent publication US20060100155A1, “Method for the therapeutic management of endometriosis” (priority 1999, published 2006):
Non-standard residues stand in square brackets, D forms with d. Residues, ends and D or L forms follow the SMILES beside them. dPhe(4-Cl) = N[C@H](Cc1ccc(Cl)cc1)C(=O)O; d2Nal = N[C@H](Cc1ccc2ccccc2c1)C(=O)O; dCit = NC(=O)NCCC[C@@H](N)C(=O)O; d3Pal = N[C@H](Cc1cccnc1)C(=O)O

Tested on: patients with confirmed endometriosis
Assay: Weekly s.c. administration of 3 mg LHRH antagonist for 8 weeks to patients with confirmed endometriosis
Assay type: in vivo, human
Conditions: for hot flushes or other (estradiol) withdrawal symptoms / proliferation of the endometrium (histological biopsies): 3 mg weekly for 8 weeks; for proliferation of the endometrium (histological biopsies): at the end of treatment
Procedure: The weekly administration of an adequate dose of an LHRH antagonist, e.g. 3 mg Cetrotide® s.c./per week over a period of eight weeks leads to a controlled suppression of estrogen secretion so that serum concentrations between about 35 pg/ml and about 80 pg/ml, preferably between about 45-75 pg/ml, more preferably between about 50-75 pg/ml are obtained. […] Also the development of osteoporosis can be avoided.

CC(=O)N[C@H](Cc1ccc2ccccc2c1)C(=O)N[C@H](Cc1ccc(Cl)cc1)C(=O)N[C@H](Cc1cccnc1)C(=O)N[C@@H](CO)C(=O)N[C@@H](Cc1ccc(O)cc1)C(=O)N[C@H](CCCNC(N)=O)C(=O)N[C@@H](CC(C)C)C(=O)N[C@@H](CCCNC(=N)N)C(=O)N1CCC[C@H]1C(=O)N[C@H](C)C(N)=O [Cetrorelix acetate] (Ac-[d2Nal][dPhe(4-Cl)][d3Pal]SY[dCit]LRP[dA]-NH2)
ovarian cyst formation (3 mg s.c. weekly for 8 weeks): No ovarian cyst formation occurred
progress of the disease confirmed by 2nd look laparascopy (3 mg s.c. weekly for 8 weeks): without any progress of the disease
hot flushes or other (estradiol) withdrawal symptoms: avoiding any hot flushes or other withdrawal symptoms
proliferation of the endometrium (histological biopsies): no proliferation of the endometrium
proliferation of the endometrium (histological biopsies) (listed as Cetrorelix): without proliferation of the endometrium
hot flushes or other (estradiol) withdrawal symptoms (listed as Cetrorelix): without any signs of estradiol withdrawal symptoms
